Results from paper PMC6506705 (2019).

Tests used:
[1] = test system: EA#14.3K42 non-labelled (DNA, aptamer) ATACCAGCTTATTCAATTTGAGGCGGGTGGGTGGGTTGAATA; experiment: dye fluorescence melting profile, qualitative; conditions: 100 mM NaCl; 20 mM TRIS, 0.02% Tween 20, pH 7.6; 10x dye; 0.5-4 μM aptamer
[2] = test system: EA#14.3K31 non-labelled (DNA, aptamer) ATTCAATTTGAGGCGGGTGGGTGGGTTGAAT; experiment: dye fluorescence melting profile, qualitative; conditions: 100 mM NaCl; 20 mM TRIS, 0.02% Tween 20, pH 7.6; 10x dye; 0.5-4 μM aptamer

binding [1]: yes
binding [2]: yes
SMILES: CCCN(CCCN(C)C)c1cc(C=C2Sc3ccccc3N2C)c2ccccc2[n+]1-c1ccccc1
